The supplement of paper PMC10920090

Assays:
[1] = system: MDA-MB-231; assay: drug sensitivity score (DSS), cytotoxicity CellTox Green; higher = more cytotoxic; extreme values may be limits of the assay; settings: 72 h
[2] = system: MDA-MB-231; assay: drug sensitivity score (DSS), cell viability CellTiter-Glo; higher = more sensitive; extreme values may be limits of the assay; settings: 72 h
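Wherever drug sensitivity score (DSS), cytotoxicity CellTox Green is given: DSS summarises each dose–response curve by combining IC50, EC50, maximal inhibition and efficacy across drug concentrations.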

Row | Compound | drug sensitivity score ([1]; shRNA: shPPFIA1_1) | drug sensitivity score ([1]; shRNA: shScramble) | drug sensitivity score ([2]; shRNA: shPPFIA1_1) | drug sensitivity score ([2]; shRNA: shScramble)
1 | CC(=O)Nc1ccc(C(=O)Nc2ccccc2N)cc1 [Tacedinaline] | 0 DSS | 0 DSS | 0 DSS | 0 DSS
2 | C=CC[C@@H]1/C=C(\C)C[C@H](C)C[C@H](OC)[C@H]2O[C@@](O)(C(=O)C(=O)N3CCCC[C@H]3C(=O)O[C@H](/C(C)=C/[C@@H]3CC[C@@H](O)[C@H](OC)C3)[C@H](C)[C@@H](O)CC1=O)[C@H](C)C[C@@H]2OC [Tacrolimus] | 0 DSS | 0 DSS | 0 DSS | 0 DSS
3 | Cn1ncnc1[C@H]1c2n[nH]c(=O)c3cc(F)cc(c23)N[C@@H]1c1ccc(F)cc1 [Talazoparib] | 0 DSS | 0 DSS | 0 DSS | 0.4 DSS
4 | C[C@@H]1CN(Cc2ccc(F)cc2)[C@@H](C)CN1C(=O)c1cc2c(C(=O)C(=O)N(C)C)cn(C)c2cc1Cl [Talmapimod] | 0 DSS | 0 DSS | 0 DSS | 0 DSS
5 | COc1cc(Nc2ncc(F)c(Nc3ccc4c(n3)NC(=O)C(C)(C)O4)n2)cc(OC)c1OC [Tamatinib] | 0.2 DSS | 0 DSS | 0 DSS | 1.8 DSS
6 | CC/C(=C(\c1ccccc1)c1ccc(OCCN(C)C)cc1)c1ccccc1 [Tamoxifen] | 6.3 DSS | 1.8 DSS | 1.8 DSS | 1 DSS
7 | COc1cc2c(N3CCN(C(=O)Nc4ccc(OC(C)C)cc4)CC3)ncnc2cc1OCCCN1CCCCC1 [Tandutinib] | 0 DSS | 0 DSS | 9.9 DSS | 6.5 DSS
8 | C=CCNC1=C2C[C@@H](C)C[C@H](OC)[C@H](O)[C@@H](C)/C=C(\C)[C@H](OC(N)=O)[C@@H](OC)/C=C\C=C(/C)C(=O)NC(=CC1=O)C2=O [Tanespimycin] | 2 DSS | 3.1 DSS | 6.7 DSS | 12.3 DSS
9 | O[C@H]1CC[C@H](Nc2ncc3nc(Nc4c(F)cc(F)cc4F)n([C@H]4CCOC4)c3n2)CC1 [Tanzisertib] | 0 DSS | 0 DSS | 0 DSS | 3.1 DSS
10 | C[C@@H](C(=O)O)c1ccc(-c2ccccc2)c(F)c1 [Tarenflurbil] | 0 DSS | 0 DSS | 0 DSS | 0 DSS
11 | Cc1nc(-c2cn3c(n2)-c2ccc(-c4cnn(C(C)(C)C(N)=O)c4)cc2OCC3)n(C(C)C)n1 [Taselisib] | 0 DSS | 0 DSS | 0 DSS | 0.9 DSS
12 | COc1cccc2c1c(O)c(C(=O)N(C)c1ccc(C(F)(F)F)cc1)c(=O)n2C [Tasquinimod] | 0 DSS | 0 DSS | 0 DSS | 3.4 DSS
13 | CCN(c1cc(-c2ccc(CN3CCOCC3)cc2)cc(C(=O)NCc2c(C)cc(C)[nH]c2=O)c1C)C1CCOCC1 [Tazemetostat] | 0 DSS | 0 DSS | 1 DSS | 0 DSS
14 | CNC(=O)c1cc(COc2nnc(Nc3ccc(Cl)cc3)c3ccoc23)ccn1 [Telatinib] | 0 DSS | 0 DSS | 0 DSS | 0 DSS
15 | Cn1nnc2c(C(N)=O)ncn2c1=O [Temozolomide] | 0 DSS | 0 DSS | 1.8 DSS | 2.6 DSS
16 | COc1cc([C@@H]2c3cc4c(cc3[C@@H](O[C@@H]3O[C@@H]5CO[C@@H](c6cccs6)O[C@H]5[C@H](O)[C@H]3O)[C@H]3COC(=O)[C@H]23)OCO4)cc(OC)c1O [Teniposide] | 5.8 DSS | 5.3 DSS | 3.1 DSS | 9 DSS
